Where a name gives a salt, the structure may show the parent alone. Read-outs that look alike come from different tables or passages of the source.

As a reminder, the melting point is the temperature, or range, at which the solid turns liquid. One may read the Ki as a measure of affinity in units of concentration, obtained from inhibition or displacement. A word on the EC50: it is the midpoint of the concentration-response curve.

One data set has as its target T1, h5-HT2A receptors (Homo sapiens, UniProt P28223).
T1 construct: expressed in transfected cells; host or cells: CHO cells
Briefly: Functional activity, FLIPR calcium assay in CHO cells expressing h5-HT2A. The format is cell-based. To be noted: for Emax: CHO, read-out: h5-HT2A Relative Efficacy; for EC50: FLIPR, CHO cells. Here is the method: (§1) The functional activity of compounds of formula (I) was assayed using a Fluorimetric Imaging Plate reader (FLIPR) in the following manner.
(§2) CHO cells expressing either the h5-HT2C or h5-HT2A receptors were counted and plated into standard 96 well microtitre plates before the day of testing to give a confluent monolayer. The following day the cells were dye loaded with the calcium sensitive dye Fluo 3-AM by incubation with serum free culture maintenance media containing pluronic acid and Fluo 3-AM dissolved in DMSO at 37° C. in a CO2 incubator at 95% humidity for approximately 90 minutes. Unincorporated dye was removed by washing with Hanks balanced salt solution containing 20 mM HEPES and 2.5 mM probenecid (the assay buffer) using an automated cell washer to leave a total volume of 100 μL/well.
(§3) The drug (dissolved in 50 μL of assay buffer) was added at a rate of 70 μL/sec to each well of the FLIPR 96 well plate during fluorescence measurements. The measurements are taken at 1 sec intervals and the maximum fluorescent signal was measured (approx 10-15 secs after drug addition) and compared with the response produced by 10 μM 5-HT (defined as 100%) to which it is expressed as a percentage response (relative efficacy). Dose response curves were constructed using Graphpad Prism (Graph Software Inc.).

A further data set has as its target T2, 5-HT2C receptor (Homo sapiens, UniProt P28335).
T2 construct: expressed in transfected cells; host or cells: CHO cell line
T2 sequence (P28335 33-458): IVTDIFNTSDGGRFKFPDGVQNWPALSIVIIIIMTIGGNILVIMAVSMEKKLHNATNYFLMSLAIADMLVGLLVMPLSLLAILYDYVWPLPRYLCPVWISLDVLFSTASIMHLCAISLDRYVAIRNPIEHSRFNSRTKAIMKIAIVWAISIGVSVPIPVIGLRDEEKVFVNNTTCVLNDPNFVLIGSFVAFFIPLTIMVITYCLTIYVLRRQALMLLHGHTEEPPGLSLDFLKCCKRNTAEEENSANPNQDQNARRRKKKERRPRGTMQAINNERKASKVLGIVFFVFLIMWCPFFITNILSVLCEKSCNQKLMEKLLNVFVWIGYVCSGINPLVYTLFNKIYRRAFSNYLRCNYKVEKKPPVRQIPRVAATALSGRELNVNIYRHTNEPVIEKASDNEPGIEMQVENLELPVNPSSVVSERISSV
Briefly: Radioligand binding to the 5-HT2C receptor ([3H]-5-HT, CHO cell line). The method, then:
(§4) 1. Binding to Serotonin Receptors
(§5) The binding of compounds of formula (I) to serotonin receptors was determined in vitro by standard methods. The preparations were investigated in accordance with the assays given hereinafter.
Method (a): For the binding to the 5-HT2C receptor the 5-HT2C receptors were radiolabelled with [^3H]-5-HT. The affinity of the compounds for 5-HT2C receptors in a CHO cell line was determined according to the procedure of D. Hoyer, G. Engel and H.O. Kalkman, European J. Pharmacol., 1985, 118, 13-23.

The next data set has as its target T3, human 5-HT2B receptors (Homo sapiens, UniProt P41595).
T3 construct: expressed in transfected cells; host or cells: CHO cell line
Put plainly: Radioligand binding to the 5-HT2B receptor ([3H]-5-HT, CHO cell line). The method, then: as §4, §5
Method (b): For the binding to the 5-HT2B receptor the 5-HT2B receptors were radiolabelled with [^3H]-5-HT. The affinity of the compounds for human 5-HT2B receptors in a CHO cell line was determined according to the procedure of K. Schmuck, C. Ullmer, P. Engels and H. Lubbert, FEBS Lett., 1994, 342, 85-90.

A further data set has as its target T4, 5-HT2A receptor (Homo sapiens, UniProt P28223).
T4 construct: expressed in transfected cells; host or cells: CHO cell line
Briefly: Radioligand binding to the 5-HT2A receptor ([125I]-DOI, CHO cell line). Here is the method:
as §4, §5
Method (c): For the binding to the 5-HT2A receptor the 5-HT2A receptors were radiolabelled with [^125I]-DOI. The affinity of the compounds for 5-HT2A receptors in a CHO cell line was determined according to the procedure of D. J. McKenna and S. J. Peroutka, J. Neurosci., 1989, 9/10, 3482-90.

Another data set concerns the target T5, h5-HT2C (Homo sapiens, UniProt P28335).
T5 construct: expressed in transfected cells; host or cells: CHO cells
T5 sequence (P28335 33-458): T2 sequence (P28335 33-458)
Put plainly: Functional activity, FLIPR calcium assay in CHO cells expressing h5-HT2C. Format: cell-based. To be noted: for Emax: CHO, read-out: h5-HT2C Relative Efficacy; for EC50: FLIPR, CHO cells. The method, then:
as §1, §2, §3

The mark [1] stands for this setting: maximum fluorescent signal compared with 10 μM 5-HT (defined as 100%).
Setting [2] is: [3H]-5-HT, CHO cell line, read-out: Ki(2C).
Setting [3] is: [3H]-5-HT, human receptor, CHO cell line, read-out: Ki(2B).
Setting [4] is: [125I]-DOI, CHO cell line, read-out: Ki(2A).

T3 sequence (P41595 whole entry): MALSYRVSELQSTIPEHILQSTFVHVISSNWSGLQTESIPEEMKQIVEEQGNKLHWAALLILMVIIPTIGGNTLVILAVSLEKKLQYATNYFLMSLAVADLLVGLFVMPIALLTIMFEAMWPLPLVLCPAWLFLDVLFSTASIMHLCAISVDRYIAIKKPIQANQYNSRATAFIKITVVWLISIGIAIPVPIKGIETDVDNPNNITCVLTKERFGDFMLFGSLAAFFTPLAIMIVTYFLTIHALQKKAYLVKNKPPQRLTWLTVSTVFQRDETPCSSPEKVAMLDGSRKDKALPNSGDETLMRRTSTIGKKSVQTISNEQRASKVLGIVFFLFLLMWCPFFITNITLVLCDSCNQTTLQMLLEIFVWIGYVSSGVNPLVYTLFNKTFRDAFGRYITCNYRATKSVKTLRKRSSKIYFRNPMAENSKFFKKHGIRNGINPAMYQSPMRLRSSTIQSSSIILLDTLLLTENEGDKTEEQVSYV
T1 sequence (P28223 whole entry): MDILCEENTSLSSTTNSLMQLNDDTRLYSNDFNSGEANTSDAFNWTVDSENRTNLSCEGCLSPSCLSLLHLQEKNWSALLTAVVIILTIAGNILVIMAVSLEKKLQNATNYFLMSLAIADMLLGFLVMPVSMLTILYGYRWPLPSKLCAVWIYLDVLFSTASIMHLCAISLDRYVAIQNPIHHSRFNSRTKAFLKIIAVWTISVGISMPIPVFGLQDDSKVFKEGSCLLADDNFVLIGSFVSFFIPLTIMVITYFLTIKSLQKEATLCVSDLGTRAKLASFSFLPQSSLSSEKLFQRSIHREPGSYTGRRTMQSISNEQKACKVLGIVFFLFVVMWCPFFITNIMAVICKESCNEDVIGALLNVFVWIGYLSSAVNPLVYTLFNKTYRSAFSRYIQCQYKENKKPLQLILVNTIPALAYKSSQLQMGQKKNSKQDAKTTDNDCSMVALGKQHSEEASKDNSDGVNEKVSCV
T4 sequence (P28223 whole entry): as above

The molecule `C[C@H](N)Cn1c2c(c3cc(F)ccc31)CCC2` (as salt: fumarate) (hydrate or solvate) [Example 2, (S)-1-(7-fluoro-1,2,3,4-tetrahydrocyclopent[b]indol-4-yl)-2-propylamine] showed a melting point of 161 to 162 °C.

Consider `C[C@H](N)Cn1c2c(c3c(Cl)cccc31)CCC2` (as salt: fumarate) [Example 4, (S)-1-(8-chloro-1,2,3,4-tetrahydrocyclopent[b]indol-4-yl)-2-propylamine], for which the melting point was 172 to 173 °C (dec.).

In the case of `COc1ccc2c3c(n(C[C@H](C)N)c2c1)CCC3` (as salt: fumarate) [Example 11, (S)-1-(6-methoxy-1,2,3,4-tetrahydrocyclopent[b]indol-4-yl)-2-propylamine], the melting point was 182 °C.

In the case of `COc1cc2c(cc1F)c1c(n2C[C@H](C)N)CCC1` (as salt: fumarate) [Example 37, (S)-1-(7-fluoro-6-methoxy-1,2,3,4-tetrahydrocyclopent[b]indol-4-yl)-2-propylamine], the melting point was 213 °C (dec.).

Molecule `C[C@H](N)Cn1c2c(c3ccccc31)CCC2` (as salt: hydrochloride) (hydrate or solvate) [Example 14, (S)-1-(1,2,3,4-tetrahydrocyclopent[b]indol-4-yl)-2-propylamine] yielded a melting point of 233 °C.

Molecule `C[C@H](N)Cn1c2c(c3c(Cl)c(F)ccc31)CCC2` (as salt: hydrochloride) (hydrate or solvate) [Example 18, (S)-1-(8-chloro-7-fluoro-1,2,3,4-tetrahydrocyclopent[b]indol-4-yl)-2-propylamine] gave a melting point of 252 to 253 °C.

Molecule `C[C@H](N)Cn1c2c(c3c(Cl)cc(Cl)cc31)CCC2` (as salt: hydrochloride) (hydrate or solvate) [Example 26] came in with a melting point of 258 °C.

In the case of `C[C@@H](N)Cn1c2c(c3ccccc31)CCC2` (as salt: hydrochloride) (hydrate or solvate) [Example 30, (R)-1-(1,2,3,4-tetrahydrocyclopent[b]indol-4-yl)-2-propylamine], the melting point is 225 to 231 °C (dec.).

Consider `C[C@H](N)Cn1c2c(c3ccc(F)cc31)CCC2` (as salt: hydrochloride) (hydrate or solvate) [Example 31], for which the melting point was 215 °C.

`CCSc1ccc2c3c(n(C[C@H](C)N)c2c1)CCC3` (as salt: hydrochloride) [Example 27] came in with a melting point of 115 to 119 °C.

For `C[C@H](N)Cn1c2c(c3c(F)c(F)ccc31)CCC2` [Example 1, (S)-1-(7,8-Difluoro-1,2,3,4-tetrahydrocyclopent[b]indol-4-yl)-2-propylamine fumarate], the figures for the Emax on h5-HT2A receptors (setting [1]) and at h5-HT2C (setting [1]) were 0% and 77%, respectively. For the same molecule, the figures for the Ki on 5-HT2C receptor, at human 5-HT2B receptors and on 5-HT2A receptor were 65 nM, 40 nM and 122 nM, respectively. The concentration for a half-maximal effect (EC50) on h5-HT2C stood at 272 nM.

With `C[C@H](N)Cn1c2c(c3cc(F)ccc31)CCC2` [Example 2, (S)-1-(7-fluoro-1,2,3,4-tetrahydrocyclopent[b]indol-4-yl)-2-propylamine], the Emax stood at 0% on h5-HT2A receptors (setting [1]) and 85% on h5-HT2C (setting [1]). The 50% effective concentration (EC50) at h5-HT2C was determined as 347 nM.

For `C[C@H](N)Cn1c2c(c3c(Cl)cccc31)CCC2` [Example 4, (S)-1-(8-chloro-1,2,3,4-tetrahydrocyclopent[b]indol-4-yl)-2-propylamine], the figures for the Emax at h5-HT2A receptors (setting [1]) and on h5-HT2C (setting [1]) were 60% and 65%, respectively. Also, at h5-HT2C, the half-maximal effective concentration (EC50) is 179 nM.

For `COc1ccc2c3c(n(C[C@H](C)N)c2c1)CCC3` [Example 11, (S)-1-(6-methoxy-1,2,3,4-tetrahydrocyclopent[b]indol-4-yl)-2-propylamine], the Emax came out at 25% at h5-HT2A receptors (setting [1]) and 85% on h5-HT2C (setting [1]). Also, the concentration giving a half-maximal response (EC50) at h5-HT2A receptors was found to be 1690 nM; on h5-HT2C, 89 nM. Moreover, the figures for the Ki at 5-HT2C receptor, at human 5-HT2B receptors and on 5-HT2A receptor were 63 nM, 210 nM and 314 nM, respectively.

For `C[C@H](N)Cn1c2c(c3ccccc31)CCC2` [Example 14, (S)-1-(1,2,3,4-tetrahydrocyclopent[b]indol-4-yl)-2-propylamine], the Emax on h5-HT2A receptors (setting [1]) worked out at 48%; on h5-HT2C (setting [1]), 80%. The EC50 came to 6250 nM on h5-HT2A receptors and 252 nM at h5-HT2C. In addition, the values for the inhibition constant Ki on 5-HT2C receptor, at human 5-HT2B receptors and on 5-HT2A receptor were 64 nM, 180 nM and 375 nM, respectively.

Turning to `C[C@H](N)Cn1c2c(c3cc(F)c(Cl)cc31)CCC2` [Example 16], the Emax on h5-HT2A receptors (setting [1]) was determined as 0%; at h5-HT2C (setting [1]), 86%. Also, on h5-HT2C, the EC50 was determined as 307 nM.

Consider `C[C@H](N)Cn1c2c(c3c(Cl)c(F)ccc31)CCC2` [Example 18, (S)-1-(8-chloro-7-fluoro-1,2,3,4-tetrahydrocyclopent[b]indol-4-yl)-2-propylamine], for which the Emax at h5-HT2A receptors (setting [1]) is 63%; at h5-HT2C (setting [1]) it was 75%. Moreover, the EC50 on h5-HT2A receptors was determined as 2100 nM; at h5-HT2C, 36 nM.

Turning to `C[C@H](N)Cn1c2c(c3c(Cl)cc(Cl)cc31)CCC2` [Example 26], the Ki is 106 nM at 5-HT2C receptor (setting [2]), 127 nM on human 5-HT2B receptors (setting [3]) and 144 nM at 5-HT2A receptor (setting [4]).

As to `CCSc1ccc2c3c(n(C[C@H](C)N)c2c1)CCC3` [Example 27], the Ki on 5-HT2C receptor (setting [2]) stood at 141 nM; on human 5-HT2B receptors (setting [3]) it was 496 nM; on 5-HT2A receptor (setting [4]), 545 nM.

For `C[C@@H](N)Cn1c2c(c3ccccc31)CCC2` [Example 30, (R)-1-(1,2,3,4-tetrahydrocyclopent[b]indol-4-yl)-2-propylamine], the results for the Emax on h5-HT2A receptors (setting [1]) and on h5-HT2C (setting [1]) were 43% and 72%, respectively. In addition, the EC50 at h5-HT2A receptors was found to be 361 nM; at h5-HT2C, 90 nM. For the same molecule, the inhibition constant (Ki) turned out to be 19 nM at 5-HT2C receptor, 31 nM on human 5-HT2B receptors and 48 nM on 5-HT2A receptor.

Turning to `C[C@H](N)Cn1c2c(c3ccc(F)cc31)CCC2` [Example 31], the figures for the Ki on 5-HT2C receptor, at human 5-HT2B receptors (setting [3]) and on 5-HT2A receptor (setting [4]) were 65 nM, 161 nM and 550 nM, respectively.

As to `CC(N)Cn1c2c(c3cc(F)c(F)cc31)CCC2` (stereo not shown) [Example 33], the Emax at h5-HT2A receptors (setting [1]) was determined as 22%; on h5-HT2C (setting [1]) it was 81%. The Ki at 5-HT2C receptor came out at 63 nM; on human 5-HT2B receptors, 152 nM; at 5-HT2A receptor it was 233 nM. In addition, the EC50 on h5-HT2C is 316 nM.

Regarding `COc1c(F)ccc2c1c1c(n2C[C@H](C)N)CCC1` [Example 42, (S)-1-(7-fluoro-8-methoxy-1,2,3,4-tetrahydrocyclopent[b]indol-4yl)-2-propylamine], the Emax on h5-HT2A receptors (setting [1]) is 51%; on h5-HT2C (setting [1]), 74%. In addition, the figures for the half-maximal effective concentration (EC50) on h5-HT2A receptors and on h5-HT2C were 805 nM and 87 nM, respectively.

Regarding “(R)-1-(7-Fluoro-1,2,3,4-tetrahydro-6-methoxy-cyclopent[b]indol-4-yl)-2-propylamine, hemifumarate [Example 36]”, the EC50 at h5-HT2A receptors was determined as 1340 nM; on h5-HT2C, 189 nM. Besides, the “h5-HT2A Relative Efficacy” value at h5-HT2A receptors (setting [1]) is 25%. For the same molecule, at h5-HT2C (setting [1]), the “h5-HT2C Relative Efficacy” value came out at 64%.

The record behind these values is patent US6706750B1, “Indole derivatives process for their preparation, pharmaceutical compositions containing them and their medicinal application” (priority 1999, dated 2004).
